Assay results from patent US20200239530A1, “COMPOUNDS AND METHODS OF MODULATING PROTEIN DEGRADATION” (Vividion Therapeutics, Inc., priority 2017, published 2020).

Key:
Type in all cases: binding
[1] = target: T1, Q8ND25 (Homo sapiens, UniProt Q8ND25); test: Cysteine liganding, probe competition (Table 2B); settings: one line per cysteine site
T1 construct: 200 μL of lysate containing 5 mg/ml proteome was treated with 2 μL of 100× compound stock; endogenous in cells
Text: (§1) The following 96-well sample prep protocol was used for sample preparation.

[2] = target: T2, Q8NHG8 (Homo sapiens, UniProt Q8NHG8); test: Cysteine liganding, probe competition (Table 2B); settings: one line per cysteine site
T2 construct: 200 μL of lysate containing 5 mg/ml proteome was treated with 2 μL of 100× compound stock; endogenous in cells
Text: as §1

[3] = target: T3, cysteine residue illustrated in Table 1A or Table 2A (Homo sapiens, UniProt O75155); test: Competitive cysteine profiling of cell lysate with desthiobiotin iodoacetamide probe (96-well sample prep); settings: UniProt O75155; 100 uM
T3 construct: Cells were resuspended in cold PBS on ice and sonicated with a probe sonicator to achieve lysis; endogenous in cells
Experimental: (§2) In some embodiments, the solution sample (e.g., cell sample, cell lysate sample, or comprising isolated proteins) is incubated with a compound of Formula (I) for analysis of protein-probe interactions. In some instances, the solution sample (e.g., cell sample, cell lysate sample, or comprising isolated proteins) is further incubated in the presence of an additional compound probe prior to addition of the compound of Formula (I). […] In such instances, the solution sample is incubated with a probe and a ligand for competitive protein profiling analysis.
as §1
(§3) Cells were resuspended in cold PBS on ice and sonicated with a probe sonicator to achieve lysis. 200 μL of lysate containing 5 mg/ml proteome was treated with 2 μL of 100× compound stock in a 2-mL deep-well plate. The treated lysate was subsequently incubate at 25° C. for 1 hr with shaking at 600 rpm. The treated lysate was further incubated with 2 μL of 10 mM desthiobiotin iodoacetamide probe at 25° C. for 1 hr with shaking at 600 rpm. Next, the lysate was further treat with 20 μL of solution of PBS containing 11 mM MgSO4 and 2.5% Turbonuclease stock and incubated at 25° C. for 20 minutes with shaking at 600 rpm. 1.7 mL ice-cold acetone was added to each well and incubated at −20° C. for 2 hr, followed by max speed (4200 rpm) spin for 45 min. Acetone was then decanted and the plates were blotted to remove acetone. The plates were then dried in open air for 20 minutes. After drying, the plates were then covered with foil seal and stored at −80° C. overnight.
(§4) The next day, samples were re-suspended in 90 μL of solution of 9M urea, 50 mM ammonium bicarbonate and 10 mM DTT by incubating at 65C for 20 min with shaking at 1500 rpm. Next, samples were cooled to 37° C. and then 10 μL of 500 mM iodoacetamide solution (92.48 mg/ml) was added. The samples were then incubated at 37° C. for 30 min with shaking at 600 rpm.
(§5) ZEBA desalting plates were equilibrated 4 times using 250 μL of 2M urea, 50 mM ammonium bicarbonate solution followed by centrifugation at 1500 rpm for 2 minutes. After equilibration was complete, samples were applied to ZEBA desalting plate and spin at 1500 rpm for 2 min on top of 1 mL 96-well deep-well collection plate to buffer exchange samples. 4 μL of solution containing 25 mM CaCl2 and 0.25 mg/mL trypsin was added to the plate and the plate was then incubated at 37° C. for 2 hrs with shaking at 600 rpm. 300 μL of solution containing 5% high-capacity streptavidin agarose slurry in 25 mM Tris-HCl pH 7.5, 150 mM NaCl, and 0.1% NP-40 then added. The plate was incubated at 25° C. for 2 hrs with shaking at 600 rpm. Samples were transferred to 25 μm filter plate and spin at 1000 rpm for 2 min. Samples were then washed 3 times with 0.75 mL of wash buffer (25 mM Tris-HCl pH 7.5, 150 mM NaCl, and 0.1% NP-40) followed by washing 3 times with 0.75 mL PBS, and then 4 times with 0.75 mL water. After the washing step, samples were eluted into polypropylene 96-well plate by addition of 250 µL of 50% MeCN/water, 0.1% formic acid and allowed to gravity drip for 10 min, followed by centrifugation at 1000 rpm for 2 min. Speedvac was used to dry the plates at about 45° C. for […]. Then the plates were covered with foil seal and stored at −20° C.
(§6) Samples were resuspended by addition of 20 μl of 12.5% ACN, 0.1% formic acid solution, covered with foil seal, and incubated at 42° C. for 10 minutes with shaking at 600 rpm. Then add 30 μL of 0.1% formic acid solution was added and the plate was covered and incubated at 42° C. for 10 minutes with shaking at 600 rpm. Seal plate was then sealed with a 96-well silicon mat for analysis.

[4] = target: T4, cysteine residue illustrated in Table 1A or Table 2A (Homo sapiens, UniProt Q8N9I9); test: as above; settings: UniProt Q8N9I9; 100 uM
T4 construct: Cells were resuspended in cold PBS on ice and sonicated with a probe sonicator to achieve lysis; endogenous in cells
Experimental: as §2, §1, §3, §4, §5, §6

[5] = target: T5, cysteine residue illustrated in Table 1A or Table 2A (Homo sapiens, UniProt Q86UW9); test: as above; settings: UniProt Q86UW9; 100 uM
T5 construct: Cells were resuspended in cold PBS on ice and sonicated with a probe sonicator to achieve lysis; endogenous in cells
Experimental: as §2, §1, §3, §4, §5, §6

[6] = test system: cysteine residue illustrated in Table 1A or Table 2A; test: as above; settings: for KB02_100 uM_percent_inhibition: KB02 at 100 uM; for KB03_100 uM_percent_inhibition: KB03 at 100 uM
Experimental: as §2, §1, §3, §4, §5, §6

[7] = target: T6, cysteine residue illustrated in Table 1A or Table 2A (Homo sapiens, UniProt Q6P1J9); test: as above; settings: UniProt Q6P1J9; 100 uM
T6 construct: Cells were resuspended in cold PBS on ice and sonicated with a probe sonicator to achieve lysis; endogenous in cells
Experimental: as §2, §1, §3, §4, §5, §6

[8] = target: T7, cysteine residue illustrated in Table 1A or Table 2A (Homo sapiens, UniProt Q8TEB1); test: as above; settings: UniProt Q8TEB1; 100 uM
T7 construct: Cells were resuspended in cold PBS on ice and sonicated with a probe sonicator to achieve lysis; endogenous in cells
Experimental: as §2, §1, §3, §4, §5, §6

[9] = target: T8, cysteine residue illustrated in Table 1A or Table 2A (Homo sapiens, UniProt Q9P000); test: as above; settings: UniProt Q9P000; 100 uM
T8 construct: Cells were resuspended in cold PBS on ice and sonicated with a probe sonicator to achieve lysis; endogenous in cells
Experimental: as §2, §1, §3, §4, §5, §6

[10] = target: T9, cysteine residue illustrated in Table 1A or Table 2A (Homo sapiens, UniProt O94941); test: as above; settings: UniProt O94941
T9 construct: Cells were resuspended in cold PBS on ice and sonicated with a probe sonicator to achieve lysis; endogenous in cells
Experimental: as §2, §1, §3, §4, §5, §6

[11] = target: T10, cysteine residue illustrated in Table 1A or Table 2A (Homo sapiens, UniProt Q96GG9); test: as above; settings: UniProt Q96GG9; 100 uM
T10 construct: Cells were resuspended in cold PBS on ice and sonicated with a probe sonicator to achieve lysis; endogenous in cells
Experimental: as §2, §1, §3, §4, §5, §6

[12] = target: T11, cysteine residue illustrated in Table 1A or Table 2A (Homo sapiens, UniProt Q66K64); test: as above; settings: UniProt Q66K64; 100 uM
T11 construct: Cells were resuspended in cold PBS on ice and sonicated with a probe sonicator to achieve lysis; endogenous in cells
Experimental: as §2, §1, §3, §4, §5, §6

[13] = target: T12, cysteine residue illustrated in Table 1A or Table 2A (Homo sapiens, UniProt Q8N3P4); test: as above; settings: UniProt Q8N3P4
T12 construct: Cells were resuspended in cold PBS on ice and sonicated with a probe sonicator to achieve lysis; endogenous in cells
Experimental: as §2, §1, §3, §4, §5, §6

[14] = 500 uM, read-out: KB02_500 uM_percent_inhibition
[15] = 100 uM, read-out: KB05_100 uM_percent_inhibition

Structure (SMILES): COc1ccc2c(c1)CCCN2C(=O)CCl [KB02]
- inhibition at 500 µM [1, 14]: 42%
- inhibition at 500 µM [2, 14]: 35%
- KB02_100 uM_percent_inhibition [3]: 24%
- KB02_100 uM_percent_inhibition [4]: 8%
- KB02_100 uM_percent_inhibition [5]: 28%
- KB02_100 uM_percent_inhibition ([6]; c0 = UniProt of target protein, one grid row per cysteine site): 24%
- KB02_100 uM_percent_inhibition ([6]; target protein = UniProt accession, one row per cysteine site): 24%
- KB02_100 uM_percent_inhibition ([6]; target protein = UniProt id in c0 of the row (one row per cysteine site)): 24%

Structure (SMILES): C=CC(=O)N(c1ccccc1)c1ccc(Br)cc1 [KB05]
- inhibition at 100 µM [1, 15]: 9%
- inhibition at 100 µM [2, 15]: 9%
- KB05_100 uM_percent_inhibition [7]: 33%
- KB05_100 uM_percent_inhibition [8]: 38%
- KB05_100 uM_percent_inhibition [9]: 19%
- KB05_100 uM_percent_inhibition ([10]; KB05 100 uM): 40%
- KB05_100 uM_percent_inhibition [11]: 10%
- KB05_100 uM_percent_inhibition [12]: 11%
- KB05_100 uM_percent_inhibition ([13]; KB05 100 uM): 55%

Structure (SMILES): O=C(CCl)Nc1cc(C(F)(F)F)cc(C(F)(F)F)c1 [KBO3]
- KB03_100 uM_percent_inhibition [3]: 31%
- KB03_100 uM_percent_inhibition [7]: 24%
- KB03_100 uM_percent_inhibition [8]: 43%
- KB03_100 uM_percent_inhibition [9]: 30%
- KB03_100 uM_percent_inhibition ([10]; KB03 100 uM): 63%
- KB03_100 uM_percent_inhibition [4]: 10%
- KB03_100 uM_percent_inhibition [5]: 8%
- KB03_100 uM_percent_inhibition [11]: 26%
- KB03_100 uM_percent_inhibition ([6]; target protein = UniProt accession, one row per cysteine site, UniProt Q9P0J7): 90%
- KB03_100 uM_percent_inhibition ([6]; target protein = UniProt accession, one row per cysteine site, UniProt Q08380): 69%
- KB03_100 uM_percent_inhibition [12]: 31%
- KB03_100 uM_percent_inhibition ([13]; KB03 100 uM): 44%
